From ChEMBL document CHEMBL1143902, “Design and synthesis of a pyrido[2,3-d]pyrimidin-5-one class of anti-inflammatory FMS inhibitors” (Bioorg Med Chem Lett, 2008) come the findings set out here.

Bounds are passed on as bounds.

Data set [1] deals with Macrophage. Description: Inhibition of CSF1-induced proliferation of mouse bone marrow derived macrophages.
Data set [2] can be described thus: Metabolic stability in human liver microsomes after 10 mins. The conditions noted are these: read-out: Stability. In kind it is ADME, Microsome.
Data set [3] is described as follows: Metabolic stability in rat liver microsomes after 10 mins. In kind it is ADME, Microsome. Particulars: read-out: Stability.
Data set [4] has as its target T1, Macrophage colony-stimulating factor 1 receptor (Homo sapiens, UniProt P07333).
Description: Inhibition of ATP-induced CSF1R autophosphorylation
Data set [5] concerns the target T2, Receptor-type tyrosine-protein kinase FLT3 (Homo sapiens, UniProt P36888).
T2 sequence (P36888 whole entry): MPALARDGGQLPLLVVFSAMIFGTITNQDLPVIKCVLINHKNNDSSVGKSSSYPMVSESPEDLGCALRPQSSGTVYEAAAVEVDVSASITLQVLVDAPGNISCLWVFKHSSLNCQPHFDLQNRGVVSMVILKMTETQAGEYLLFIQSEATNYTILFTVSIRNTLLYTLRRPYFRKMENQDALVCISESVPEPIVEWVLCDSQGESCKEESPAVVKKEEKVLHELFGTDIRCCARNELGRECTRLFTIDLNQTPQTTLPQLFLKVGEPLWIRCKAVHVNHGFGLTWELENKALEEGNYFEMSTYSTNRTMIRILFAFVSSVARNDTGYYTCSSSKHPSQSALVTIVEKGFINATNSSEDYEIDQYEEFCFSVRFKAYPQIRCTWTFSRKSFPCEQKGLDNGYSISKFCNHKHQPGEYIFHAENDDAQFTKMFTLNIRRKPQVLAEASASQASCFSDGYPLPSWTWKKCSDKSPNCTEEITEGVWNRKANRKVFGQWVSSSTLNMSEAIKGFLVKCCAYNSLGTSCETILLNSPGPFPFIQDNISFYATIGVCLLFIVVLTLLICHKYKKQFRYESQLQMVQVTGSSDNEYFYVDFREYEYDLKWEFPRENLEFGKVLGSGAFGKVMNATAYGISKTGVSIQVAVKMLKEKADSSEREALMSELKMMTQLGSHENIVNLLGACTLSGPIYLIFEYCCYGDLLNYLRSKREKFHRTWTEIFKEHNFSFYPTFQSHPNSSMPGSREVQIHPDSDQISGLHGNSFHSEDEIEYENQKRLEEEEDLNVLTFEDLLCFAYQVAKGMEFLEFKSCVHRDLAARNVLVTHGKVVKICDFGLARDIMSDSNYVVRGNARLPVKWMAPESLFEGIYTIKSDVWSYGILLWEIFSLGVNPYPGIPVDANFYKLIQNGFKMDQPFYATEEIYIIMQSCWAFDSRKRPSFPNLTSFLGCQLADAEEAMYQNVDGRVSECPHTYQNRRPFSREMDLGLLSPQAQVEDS
Description: Inhibition of FLT3.

Data set [6] deals with Mast/stem cell growth factor receptor Kit (Homo sapiens, UniProt P10721). Description: Inhibition of KIT.
For data set [7], the target named is Platelet-derived growth factor receptor beta (Homo sapiens, UniProt P09619). Description: Inhibition of PDGFRbeta.
Data set [8] deals with T3, Tyrosine-protein kinase receptor UFO (Homo sapiens, UniProt P30530).
T3 sequence (P30530 whole entry): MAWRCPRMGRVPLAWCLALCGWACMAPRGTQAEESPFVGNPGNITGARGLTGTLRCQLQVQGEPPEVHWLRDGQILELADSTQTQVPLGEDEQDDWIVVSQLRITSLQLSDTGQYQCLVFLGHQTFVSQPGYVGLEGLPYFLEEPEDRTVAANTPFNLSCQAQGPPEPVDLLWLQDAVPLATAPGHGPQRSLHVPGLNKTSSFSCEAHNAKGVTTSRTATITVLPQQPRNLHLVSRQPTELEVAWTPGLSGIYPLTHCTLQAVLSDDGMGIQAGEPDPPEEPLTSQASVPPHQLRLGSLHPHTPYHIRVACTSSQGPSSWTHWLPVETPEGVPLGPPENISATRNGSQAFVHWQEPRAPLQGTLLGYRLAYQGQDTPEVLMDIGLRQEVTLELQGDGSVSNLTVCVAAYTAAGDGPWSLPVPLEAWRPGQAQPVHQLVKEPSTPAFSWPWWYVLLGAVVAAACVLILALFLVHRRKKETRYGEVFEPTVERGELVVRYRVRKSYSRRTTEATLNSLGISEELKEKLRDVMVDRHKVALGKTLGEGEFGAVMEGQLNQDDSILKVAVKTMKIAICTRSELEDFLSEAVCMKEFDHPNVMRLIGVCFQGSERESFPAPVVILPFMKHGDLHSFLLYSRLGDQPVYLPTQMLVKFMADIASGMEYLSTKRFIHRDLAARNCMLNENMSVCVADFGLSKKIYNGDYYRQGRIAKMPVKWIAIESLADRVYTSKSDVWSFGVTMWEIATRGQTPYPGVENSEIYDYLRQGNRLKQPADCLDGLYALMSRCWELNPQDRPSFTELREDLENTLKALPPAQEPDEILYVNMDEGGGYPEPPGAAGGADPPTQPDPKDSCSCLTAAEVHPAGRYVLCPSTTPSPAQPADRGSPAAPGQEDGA
Description: Inhibition of Axl.

Data set [9] has as its target High affinity nerve growth factor receptor (Homo sapiens, UniProt P04629). Description: Inhibition of TrkA.
Data set [10] can be described thus: Inhibition of IRKbeta.
The target of data set [11] is Proto-oncogene tyrosine-protein kinase Src (Homo sapiens, UniProt P12931). Briefly: Inhibition of Src.
Data set [12] has as its target T4, Adenosine receptor A3 (Homo sapiens) (UniProt P0DMS8).
T4 sequence (whole entry): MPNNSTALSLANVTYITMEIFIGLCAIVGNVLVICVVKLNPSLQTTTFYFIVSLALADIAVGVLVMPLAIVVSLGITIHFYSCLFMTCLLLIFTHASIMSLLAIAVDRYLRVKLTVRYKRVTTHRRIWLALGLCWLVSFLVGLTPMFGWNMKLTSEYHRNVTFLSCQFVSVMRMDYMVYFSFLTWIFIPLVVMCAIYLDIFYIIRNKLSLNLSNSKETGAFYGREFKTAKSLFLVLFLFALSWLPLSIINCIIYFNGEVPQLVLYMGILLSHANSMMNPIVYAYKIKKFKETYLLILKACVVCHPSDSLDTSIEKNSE
Description: Inhibition of human A3 receptor at 10 uM.

In data set [13] the target is Adenosine receptor A2a (Homo sapiens) (UniProt P29274). Briefly: Inhibition of human A2A receptor at 10 uM.
Data set [14] in a line: Clearance in rat at 2 mg/kg, iv. In kind it is ADME, organism-based. On the set-up: dose 2 mg/kg, route intravenous. The conditions noted are these: in vivo.
Data set [15] can be described thus: Volume of distribution in rat at 2 mg/kg, iv. It counts as ADME, organism-based. On the set-up: dose 2 mg/kg, route intravenous. Particulars: in vivo.
A short description of data set [16]: Bioavailability in rat 10 mg/kg, po. It counts as ADME, organism-based. The conditions noted are these: in vivo.
For data set [17], the system named is Mus musculus. Briefly: Inhibition of LPS-induced TNFalpha production in Swiss Webster mouse plasma at 20 mg/kg, ip after 90 mins. It counts as functional. On the set-up: scale not given: the % may be the effect or the level left. The conditions noted are these: route intraperitoneal.
Data set [18] relates to Mus musculus. Description: Inhibition of LPS-induced TNFalpha production in Swiss Webster mouse plasma at 50 mg/kg, ip after 90 mins. In kind it is functional. On the set-up: scale not given: the % may be the effect or the level left. The conditions noted are these: route intraperitoneal.
In data set [19] the target is T1, Macrophage colony-stimulating factor 1 receptor. Briefly: Inhibition of CSF1R.
Data set [20] concerns the target T4, Adenosine receptor A3 (Homo sapiens). Description: Inhibition of human A3 receptor at 5 uM.

T1 sequence (P07333 whole entry): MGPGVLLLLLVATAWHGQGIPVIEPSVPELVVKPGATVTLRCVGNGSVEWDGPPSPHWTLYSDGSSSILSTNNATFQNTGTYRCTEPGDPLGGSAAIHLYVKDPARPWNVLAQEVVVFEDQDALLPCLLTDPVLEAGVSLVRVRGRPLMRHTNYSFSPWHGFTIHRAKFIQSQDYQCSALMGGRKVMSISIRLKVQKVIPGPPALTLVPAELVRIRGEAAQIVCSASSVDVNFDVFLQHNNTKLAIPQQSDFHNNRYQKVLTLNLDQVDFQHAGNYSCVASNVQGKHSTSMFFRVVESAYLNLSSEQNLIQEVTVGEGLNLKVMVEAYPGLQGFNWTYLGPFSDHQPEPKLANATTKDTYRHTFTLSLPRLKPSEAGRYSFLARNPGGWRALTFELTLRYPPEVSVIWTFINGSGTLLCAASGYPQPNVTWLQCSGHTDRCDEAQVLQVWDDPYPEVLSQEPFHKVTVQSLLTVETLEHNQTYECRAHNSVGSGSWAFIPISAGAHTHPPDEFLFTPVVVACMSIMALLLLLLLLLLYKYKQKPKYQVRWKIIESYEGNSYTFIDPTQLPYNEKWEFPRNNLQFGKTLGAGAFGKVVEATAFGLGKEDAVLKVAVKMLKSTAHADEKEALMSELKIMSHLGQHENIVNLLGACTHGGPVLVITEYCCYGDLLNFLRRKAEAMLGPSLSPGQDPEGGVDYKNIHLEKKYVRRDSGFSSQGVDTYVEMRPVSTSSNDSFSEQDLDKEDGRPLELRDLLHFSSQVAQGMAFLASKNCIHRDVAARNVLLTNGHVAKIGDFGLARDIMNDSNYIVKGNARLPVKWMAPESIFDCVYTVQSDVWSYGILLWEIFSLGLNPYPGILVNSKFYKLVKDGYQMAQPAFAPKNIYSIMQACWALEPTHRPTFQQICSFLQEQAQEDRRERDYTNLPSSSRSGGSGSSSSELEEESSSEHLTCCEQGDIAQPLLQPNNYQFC
High affinity nerve growth factor receptor, sequence (P04629 whole entry): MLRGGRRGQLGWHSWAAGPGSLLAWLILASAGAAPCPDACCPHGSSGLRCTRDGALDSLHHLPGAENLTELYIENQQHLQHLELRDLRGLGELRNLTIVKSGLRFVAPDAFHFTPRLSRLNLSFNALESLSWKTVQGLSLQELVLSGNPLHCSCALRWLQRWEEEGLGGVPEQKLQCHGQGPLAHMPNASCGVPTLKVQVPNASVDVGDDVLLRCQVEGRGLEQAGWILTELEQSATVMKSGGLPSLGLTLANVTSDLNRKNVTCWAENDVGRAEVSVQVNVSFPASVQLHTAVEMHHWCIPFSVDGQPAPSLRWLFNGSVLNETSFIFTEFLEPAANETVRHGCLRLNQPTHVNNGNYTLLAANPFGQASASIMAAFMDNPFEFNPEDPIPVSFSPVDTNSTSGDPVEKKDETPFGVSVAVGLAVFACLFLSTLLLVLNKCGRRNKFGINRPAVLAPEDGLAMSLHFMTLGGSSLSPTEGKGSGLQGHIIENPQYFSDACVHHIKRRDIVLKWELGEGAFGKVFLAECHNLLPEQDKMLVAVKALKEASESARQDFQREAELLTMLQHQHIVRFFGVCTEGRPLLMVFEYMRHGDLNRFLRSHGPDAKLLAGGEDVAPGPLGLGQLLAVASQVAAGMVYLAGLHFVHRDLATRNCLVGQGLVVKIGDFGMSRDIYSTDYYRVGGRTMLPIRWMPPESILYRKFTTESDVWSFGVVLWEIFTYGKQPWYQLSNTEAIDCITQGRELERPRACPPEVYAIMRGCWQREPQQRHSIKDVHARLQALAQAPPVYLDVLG
Proto-oncogene tyrosine-protein kinase Src, sequence (P12931 2-536 limits assumed): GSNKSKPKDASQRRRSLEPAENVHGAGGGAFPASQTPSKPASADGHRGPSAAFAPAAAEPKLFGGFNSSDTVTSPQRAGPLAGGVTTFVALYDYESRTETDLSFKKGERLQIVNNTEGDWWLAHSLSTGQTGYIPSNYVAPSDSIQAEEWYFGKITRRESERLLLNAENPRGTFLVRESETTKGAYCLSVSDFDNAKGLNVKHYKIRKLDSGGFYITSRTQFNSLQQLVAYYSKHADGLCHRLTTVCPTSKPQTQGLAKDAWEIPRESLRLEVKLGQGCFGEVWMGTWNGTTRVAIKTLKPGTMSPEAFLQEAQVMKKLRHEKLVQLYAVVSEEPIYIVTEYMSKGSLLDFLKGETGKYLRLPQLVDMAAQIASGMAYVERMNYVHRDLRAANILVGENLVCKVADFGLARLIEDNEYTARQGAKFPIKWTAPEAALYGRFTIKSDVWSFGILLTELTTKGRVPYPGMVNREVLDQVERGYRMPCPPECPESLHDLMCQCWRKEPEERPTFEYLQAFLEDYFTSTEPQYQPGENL
Platelet-derived growth factor receptor beta, sequence (P09619 whole entry): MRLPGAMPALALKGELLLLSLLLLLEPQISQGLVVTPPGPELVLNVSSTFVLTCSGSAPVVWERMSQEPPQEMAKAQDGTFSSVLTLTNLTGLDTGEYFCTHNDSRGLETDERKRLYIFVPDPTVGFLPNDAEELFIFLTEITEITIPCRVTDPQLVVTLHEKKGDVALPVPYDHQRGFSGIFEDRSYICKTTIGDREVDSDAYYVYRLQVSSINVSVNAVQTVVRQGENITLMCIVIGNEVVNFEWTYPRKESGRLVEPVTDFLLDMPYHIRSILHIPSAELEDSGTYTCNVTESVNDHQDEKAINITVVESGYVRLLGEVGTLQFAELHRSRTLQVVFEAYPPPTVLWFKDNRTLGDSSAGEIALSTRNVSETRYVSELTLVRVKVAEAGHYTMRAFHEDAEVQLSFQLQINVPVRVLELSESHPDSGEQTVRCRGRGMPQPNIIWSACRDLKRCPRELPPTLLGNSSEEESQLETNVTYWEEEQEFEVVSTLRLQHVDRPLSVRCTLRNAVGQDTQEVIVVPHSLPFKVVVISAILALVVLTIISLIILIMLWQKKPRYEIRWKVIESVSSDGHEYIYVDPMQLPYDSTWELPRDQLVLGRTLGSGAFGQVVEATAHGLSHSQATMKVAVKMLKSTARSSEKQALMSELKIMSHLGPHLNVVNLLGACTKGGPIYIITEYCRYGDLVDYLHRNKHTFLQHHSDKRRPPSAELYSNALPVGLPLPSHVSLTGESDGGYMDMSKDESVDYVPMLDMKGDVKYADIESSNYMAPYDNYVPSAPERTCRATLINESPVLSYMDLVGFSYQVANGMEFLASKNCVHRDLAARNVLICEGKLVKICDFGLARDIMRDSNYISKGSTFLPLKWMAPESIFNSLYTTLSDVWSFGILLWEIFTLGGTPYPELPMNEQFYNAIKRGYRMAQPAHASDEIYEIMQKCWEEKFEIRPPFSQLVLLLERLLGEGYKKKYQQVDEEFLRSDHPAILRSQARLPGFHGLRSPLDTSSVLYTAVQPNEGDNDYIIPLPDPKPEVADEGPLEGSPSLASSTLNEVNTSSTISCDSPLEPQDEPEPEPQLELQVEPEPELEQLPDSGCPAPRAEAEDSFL
Mast/stem cell growth factor receptor Kit, sequence (P10721 whole entry): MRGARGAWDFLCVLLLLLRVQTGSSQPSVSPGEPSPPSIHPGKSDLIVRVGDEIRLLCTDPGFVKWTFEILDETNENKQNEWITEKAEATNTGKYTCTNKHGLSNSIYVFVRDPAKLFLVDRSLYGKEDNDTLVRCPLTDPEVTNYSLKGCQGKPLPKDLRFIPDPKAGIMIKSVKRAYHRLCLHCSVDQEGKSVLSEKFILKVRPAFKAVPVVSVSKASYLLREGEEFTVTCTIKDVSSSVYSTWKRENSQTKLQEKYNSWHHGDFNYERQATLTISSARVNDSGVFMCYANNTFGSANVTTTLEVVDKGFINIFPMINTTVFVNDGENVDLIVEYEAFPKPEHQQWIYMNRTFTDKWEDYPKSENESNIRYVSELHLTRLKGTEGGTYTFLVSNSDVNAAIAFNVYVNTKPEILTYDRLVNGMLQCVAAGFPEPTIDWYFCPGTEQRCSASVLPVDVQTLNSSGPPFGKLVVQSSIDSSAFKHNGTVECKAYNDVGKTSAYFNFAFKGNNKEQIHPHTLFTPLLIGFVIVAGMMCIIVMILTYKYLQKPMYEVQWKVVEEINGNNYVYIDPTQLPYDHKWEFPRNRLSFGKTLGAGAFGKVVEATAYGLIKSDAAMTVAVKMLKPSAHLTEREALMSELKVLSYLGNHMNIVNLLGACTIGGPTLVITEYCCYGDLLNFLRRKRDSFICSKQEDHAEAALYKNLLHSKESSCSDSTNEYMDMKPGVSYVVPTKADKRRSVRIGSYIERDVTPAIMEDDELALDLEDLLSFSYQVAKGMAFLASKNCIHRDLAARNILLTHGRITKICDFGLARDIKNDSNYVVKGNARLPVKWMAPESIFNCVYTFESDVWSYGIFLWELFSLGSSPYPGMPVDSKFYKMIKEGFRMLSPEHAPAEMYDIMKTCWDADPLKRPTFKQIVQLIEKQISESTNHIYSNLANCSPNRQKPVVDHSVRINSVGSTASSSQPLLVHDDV
Adenosine receptor A2a (Homo sapiens), sequence (P29274 whole entry): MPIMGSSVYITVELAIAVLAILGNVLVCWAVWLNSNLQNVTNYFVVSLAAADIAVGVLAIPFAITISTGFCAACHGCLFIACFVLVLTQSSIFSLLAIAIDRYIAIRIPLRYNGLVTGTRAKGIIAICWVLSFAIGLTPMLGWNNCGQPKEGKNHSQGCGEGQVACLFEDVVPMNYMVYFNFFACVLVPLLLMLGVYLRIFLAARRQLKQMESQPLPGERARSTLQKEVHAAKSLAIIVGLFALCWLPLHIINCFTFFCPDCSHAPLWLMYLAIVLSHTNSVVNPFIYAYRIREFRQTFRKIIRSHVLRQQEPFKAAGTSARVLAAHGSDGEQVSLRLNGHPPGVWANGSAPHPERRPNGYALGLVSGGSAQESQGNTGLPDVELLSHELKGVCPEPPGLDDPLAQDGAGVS

Consider `NC(=O)c1cn(-c2ccc3c(c2)CCC3)c2nc(Nc3ccc(C4CCNCC4)cc3)ncc2c1=O`, for which half-maximal inhibition in [1] (IC50) was put at 51 nM.

`NC(=O)c1cn(-c2ccc3c(c2)CCC3)c2nc(Nc3cccc(C(=O)N4CCCCC4)c3)ncc2c1=O`: the IC50 (in general, the concentration that inhibits the measured activity by half) in data set [1] amounted to 14 nM.

As to `NC(=O)c1cn(-c2ccc3c(c2)CCC3)c2nc(Nc3ccc(CCN4CCOCC4)cc3)ncc2c1=O`, the IC50 in data set [1] and in data set [4] was 8 nM in each case. Besides, the values for the remaining at 10 min in data set [2] and in data set [3] were 58% and 83%, respectively.

Consider `CCOC(=O)c1cn(-c2ccc3c(c2)CCC3)c2nc(Nc3ccc(N4CCN(C)CC4)cc3)ncc2c1=O`, for which the IC50 in [1] is 470 nM; in [4], 250 nM.

`CN1CCN(Cc2ccc(Nc3ncc4c(=O)c(C(N)=O)cn(-c5ccc6c(c5)CCC6)c4n3)cc2)CC1`: the IC50 in data set [1] is 11 nM; in data set [5] it was 1 nM; in [6] it was 28 nM; in [7] it was above 2000 nM; in data set [8] it was above 500 nM; in [9] it was 310 nM. In addition, the IC50 was above 2000 nM in data set [10] and 1500 nM in data set [11]. Besides, the remaining at 10 min in [2] turned out to be 74%; in [3], 54%. In addition, the inhibition – broadly, the percentage by which the read-out fell short of the control – came out at 60% in data set [12] and 58% in data set [13]. Besides, the clearance (commonly the rate of elimination divided by the concentration) in data set [14] came out at 29 mL/min/kg. Moreover, the Vd (usually the apparent volume that relates the amount in the body to the concentration in plasma or blood) in [15] was 26.5 L/kg. Further, the bioavailability (in general, dose-corrected exposure relative to a reference, in per cent) in data set [16] was 4%. For the same compound, the Activity in data set [17] amounted to 81%; in data set [18], 87%.

With `CN1CCN(c2ccc(Nc3ncc4c(=O)c(C(N)=O)cn(-c5ccc6c(c5)CCC6)c4n3)cc2)CC1`, the IC50 in data set [19] was 13 nM; in data set [1], 16 nM; in data set [5], 3 nM; in [6], 56 nM; in data set [7] it was above 1000 nM; in data set [8] it was above 300 nM. In addition, the figures for the IC50 in data set [9], in data set [10] and in [11] were 200 nM, above 1000 nM and 1000 nM, respectively. Besides, the remaining at 10 min in data set [2] is 80.5%; in data set [3] it was 87.3%. The inhibition in data set [20] was 55%. For the same compound, the clearance in [14] amounted to 133 mL/min/kg. The compound further had a Vd in data set [15] of 18.7 L/kg.

For `CN(C)Cc1ccc(Nc2ncc3c(=O)c(C(N)=O)cn(-c4ccc5c(c4)CCC5)c3n2)cc1`, in data set [1], the IC50 is 4 nM. Further, the remaining at 10 min in [2] stood at 35%; in [3], 38%.

In turn, `CC1CN(c2ccc(Nc3ncc4c(=O)c(C(N)=O)cn(-c5ccc6c(c5)CCC6)c4n3)cc2)CC(C)N1` (centres undefined) had an IC50 in [1] of 3 nM.

In turn, `NC(=O)c1cn(-c2ccc3c(c2)CCC3)c2nc(Nc3ccc(N4CCNCC4)cc3)ncc2c1=O` gave an IC50 in data set [1] of 4 nM.

In the case of `CN1CCN(CCc2ccc(Nc3ncc4c(=O)c(C(N)=O)cn(-c5ccc6c(c5)CCC6)c4n3)cc2)CC1`, half-maximal inhibition in data set [1] (IC50) was put at 9 nM. Further, the remaining at 10 min in data set [2] was determined as 96%; in data set [3], 84%.

Take `CCOC(=O)c1nc2cnc(Nc3ccccc3)nc2n(-c2ccccc2)c1=O` [PTERIDINONE]: the IC50 in data set [19] was 180 nM.

Consider `NC(=O)c1cn(-c2ccc3c(c2)CCC3)c2nc(Nc3ccc(CN4CCOCC4)cc3)ncc2c1=O`, for which the values for the IC50 in [1] and in data set [4] were 27 nM and 22 nM, respectively. For the same compound, the remaining at 10 min in [2] came to 2.5%; in [3], 9.7%.

In data set [4], `NC(=O)c1cn(-c2ccc3c(c2)CCC3)c2nc(Nc3ccccc3)ncc2c1=O` came in with an IC50 of 280 nM.

In [1], `CN(C)CCc1ccc(Nc2ncc3c(=O)c(C(N)=O)cn(-c4ccc5c(c4)CCC5)c3n2)cc1` gave an IC50 of 16 nM. The results for the remaining at 10 min in data set [2] and in data set [3] were 88% and 65%, respectively.

For `NC(=O)c1cn(-c2ccc3c(c2)CCC3)c2nc(Nc3ccc(C[C@H]4COC(=O)N4)cc3)ncc2c1=O`, the IC50 in [1] amounted to 90 nM.

On to `CN1CCN(c2cccc(Nc3ncc4c(=O)c(C(N)=O)cn(-c5ccc6c(c5)CCC6)c4n3)c2)CC1`, for which, in data set [1], the IC50 is 6 nM.

Take `CN1CCN(CCCNc2ncc3c(=O)c(C(N)=O)cn(-c4ccc5c(c4)CCC5)c3n2)CC1`: the IC50 in [4] came out at 1800 nM.
